“Also recorded” adds a separate entry of the source.
Tests used:
[1] = target: T1, CDK10 (Homo sapiens, UniProt Q15131); assay: CDK10 degradation in MOLT4 cells (TMT proteomics, immunoblot); assay type: cell-based
T1 construct: endogenous in cells; host or cells: MOLT4
Experimental: Cells were collected and lysed in RIPA lysis buffer (Cat. #BP-115DG, Boston Bio Products, Ashland, MA, USA) supplemented with protease and phosphatase inhibitor cocktails (Cat. #PPC1010, Sigma-Aldrich, St. Louis, MO, USA). Protein samples were made and immunoblotting was performed as described previously (Khan et al., 2019; Lv et al., 2021). Antibodies purchased from Cell Signaling Technologies (CST) and the dilutions are as follows: Biotin (Cat. No. 5571S, 1:1000), PARP (Cat. No. 9542S, 1:1000), c-Myc (Cat. No. 5605S, 1:1000), MCL1 (Cat. No. 5453S, 1:1000), and ALK (Cat. No. 3791S, 1:1000). KEAP1 antibody was purchased from Proteintech (Cat. No. 10503-2-AP, 1:1000). CDK9 antibody was purchased from Santa Cruz (Cat. No. sc-13130, 1:500). V5-tag antibody was purchased from Bethyl (Cat. No. A190-120P, 1:1000). j-actin antibody was purchased from MP Biomedicals (Cat. No. 8691001, 1:20 000).
Sample Preparation and LC-MS/MS analysis. […]
Data processing and analysis. Proteins were identified and MS3 reporter ions quantified using MaxQuant (version 2.0.3.0; Max Planck Institute) against the Homo sapiens UniprotKB database (March 2021) with a parent ion tolerance of 3 ppm, a fragment ion tolerance of 0.5 Da, and a reporter ion tolerance of 0.003 Da. […]

[2] = target: CDK9 (Homo sapiens, UniProt P50750); assay: CDK9 degradation in MOLT4 cells (immunoblot); assay type: cell-based; design: endogenous in cells; host or cells: MOLT4, 293T, K562, NCI-H1299, LNCaP
Chain of CDK9 (P50750 whole entry): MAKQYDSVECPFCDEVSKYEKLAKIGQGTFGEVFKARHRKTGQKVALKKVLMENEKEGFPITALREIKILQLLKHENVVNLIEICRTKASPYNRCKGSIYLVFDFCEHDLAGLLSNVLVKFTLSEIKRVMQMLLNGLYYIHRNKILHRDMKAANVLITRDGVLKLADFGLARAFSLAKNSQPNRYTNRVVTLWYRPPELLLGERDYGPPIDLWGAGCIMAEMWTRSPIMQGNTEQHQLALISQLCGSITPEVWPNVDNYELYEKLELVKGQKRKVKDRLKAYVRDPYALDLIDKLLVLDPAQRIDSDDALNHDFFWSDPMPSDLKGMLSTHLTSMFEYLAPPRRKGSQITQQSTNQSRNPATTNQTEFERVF
Experimental: All the cell lines were maintained in a humidified incubator at 37° C. and 5% CO2.
Data analysis was performed using GraphPad Prism software (version 9) unless indicated otherwise. All graphs presented represent the mean±standard deviation of the mean (SD) unless otherwise stated.

T1 sequence (Q15131 whole entry): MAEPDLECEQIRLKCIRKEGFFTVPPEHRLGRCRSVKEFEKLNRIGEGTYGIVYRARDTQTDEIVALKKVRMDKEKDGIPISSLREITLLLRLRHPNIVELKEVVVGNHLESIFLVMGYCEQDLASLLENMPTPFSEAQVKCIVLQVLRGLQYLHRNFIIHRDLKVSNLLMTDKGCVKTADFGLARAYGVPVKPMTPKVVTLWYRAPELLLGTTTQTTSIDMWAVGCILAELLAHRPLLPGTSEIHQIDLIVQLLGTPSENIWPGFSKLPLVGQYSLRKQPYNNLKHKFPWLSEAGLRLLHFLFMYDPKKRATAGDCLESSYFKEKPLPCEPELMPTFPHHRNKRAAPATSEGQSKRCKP

955-induced CDK9 degradation after pre-treatment with PL or SNS-032 [2]: fully blocked
955-induced CDK9 degradation with E1 inhibitors PYR-41 and TAK-243 [2]: E1-dependent
955-induced CDK9 degradation with KEAP1 inhibitors CDDO-ME, CDDO-IM or DMF [2]: completely blocked
duration of CDK9 degradation effect in the time course ([2]; 955 at 0.1 μM): at least 48 hours
time at which CDK9 was completely degraded ([2]; 955 at 0.1 μM, time course): 8 h
time to almost complete degradation of CDK9 ([2]; 955 at 0.1 μM, time course): ≤ 8 h
DC50 ([2]; 16 h treatment, from ImageJ-quantified Western blots): 9 nM
duration of CDK9 degradation after removal (washout) of 955 ([2]; washout): up to 18 h
SMILES: COc1cc(/C=C/C(=O)N2CCC=CC2=O)cc(OC)c1OCCN1CCN(C(=O)CN2CCC(C(=O)Nc3ncc(SCc4ncc(C(C)(C)C)o4)s3)CC2)CC1 [compound 955, (E)-N-(5-(((5-(tert-butyl)oxazol-2-yl)methyl)thio)thiazol-2-yl)-1-(2-(4-(2-(2,6-dimethoxy-4-(3-oxo-3-(6-oxo-3,6-dihydropyridin-1(2H)-yl)prop-1-en-1-yl)phenoxy)ethyl)piperazin-1-yl)-2-oxoethyl)piperidine-4-carboxamide]
dependence of CDK10 degradation (MG132, MLN4924 pre-treatment) [1]: UPS—and CRL-dependent manner; also recorded: proteasome- and CRL-dependent manner
CDK10 degradation ([1]; 0.1 μM 955, 1 μM SNS-032): significantly decreased CDK10; also recorded: potently degrade CDK10
955-induced CDK9 degradation after pre-treatment with autophagy/lysosome inhibitor Baf-A1 or chloroquine [2]: could not block CDK9 degradation; also recorded: does not block CDK9 degradation
955-induced CDK9 degradation after pre-treatment with neddylation inhibitor MLN4924 [2]: could be blocked; also recorded: blocks 955-induced CDK9 degradation
955-induced CDK9 degradation after pre-treatment with pan-caspase inhibitor QVD [2]: could not block CDK9 degradation; also recorded: does not block CDK9 degradation
955-induced CDK9 degradation after pre-treatment with proteasome inhibitor MG132 or bortezomib [2]: could be blocked; also recorded: can be blocked
CDK9 degradation with short-term treatment ([2]; 6 h treatment): potently degraded CDK9; also recorded: able to potently degrade CDK9
CDK9 degradation ([2]; immunoblot): only 955, degraded CDK9; also recorded: can induce CDK9 degradation

— patent US20250057963A1, “DISCOVERY OF PIPERLONGUMINE AS A NOVEL E3 LIGASE LIGAND” (University of Florida Research Foundation, Incorporated, priority 2021, published 2025)
